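In this assay, cells in 96-well plates receive the compound at five concentrations for 48 hours. Endpoints are linearly interpolated between the surrounding concentrations. GI50 = concentration required for 50% inhibition of growth. TGI denotes the concentration required for complete inhibition of growth.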
Tests used:
Experiment in all cases: DTP human tumour cell line panel, 48 h
SK-MEL-28 melanoma = test system: SK-MEL-28 melanoma
ACHN renal = test system: ACHN renal
DU-145 prostate = test system: DU-145 prostate
SF-268 CNS = test system: SF-268 CNS
T-47D breast = test system: T-47D breast
A498 renal = test system: A498 renal
SK-MEL-5 melanoma = test system: SK-MEL-5 melanoma
UACC-62 melanoma = test system: UACC-62 melanoma
BT-549 breast = test system: BT-549 breast
HS 578T breast = test system: HS 578T breast
CCRF-CEM leukemia = test system: CCRF-CEM leukemia
NCI/ADR-RES ovarian = test system: NCI/ADR-RES ovarian
OVCAR-8 ovarian = test system: OVCAR-8 ovarian
SF-295 CNS = test system: SF-295 CNS
SF-539 CNS = test system: SF-539 CNS
PC-3 prostate = test system: PC-3 prostate
HT29 colon = test system: HT29 colon
SW-620 colon = test system: SW-620 colon
K-562 leukemia = test system: K-562 leukemia
HL-60(TB) leukemia = test system: HL-60(TB) leukemia
MCF7 breast = test system: MCF7 breast
KM12 colon = test system: KM12 colon
M14 melanoma = test system: M14 melanoma
RPMI-8226 leukemia = test system: RPMI-8226 leukemia
NCI-H23 lung = test system: NCI-H23 lung
UO-31 renal = test system: UO-31 renal
SK-MEL-2 melanoma = test system: SK-MEL-2 melanoma
SK-OV-3 ovarian = test system: SK-OV-3 ovarian
RXF 393 renal = test system: RXF 393 renal
A549 NSCLC = test system: A549 NSCLC
IGROV1 ovarian = test system: IGROV1 ovarian
OVCAR-5 ovarian = test system: OVCAR-5 ovarian
U251 CNS = test system: U251 CNS
OVCAR-3 ovarian = test system: OVCAR-3 ovarian
MDA-MB-435 = test system: MDA-MB-435
LOX IMVI melanoma = test system: LOX IMVI melanoma
SR leukemia = test system: SR leukemia
786-0 renal = test system: 786-0 renal
TK-10 renal = test system: TK-10 renal
COLO 205 colon = test system: COLO 205 colon
HCT-15 colon = test system: HCT-15 colon
MDA-MB-231 breast = test system: MDA-MB-231 breast
HCT-116 colon = test system: HCT-116 colon
OVCAR-4 ovarian = test system: OVCAR-4 ovarian
HOP-62 NSCLC = test system: HOP-62 NSCLC
SNB-19 CNS = test system: SNB-19 CNS
UACC-257 melanoma = test system: UACC-257 melanoma
HCC-2998 colon = test system: HCC-2998 colon
MALME-3M melanoma = test system: MALME-3M melanoma
SNB-75 CNS = test system: SNB-75 CNS
MOLT-4 leukemia = test system: MOLT-4 leukemia
CAKI-1 renal = test system: CAKI-1 renal
NCI-H226 lung = test system: NCI-H226 lung
NCI-H460 lung = test system: NCI-H460 lung
SN12C renal = test system: SN12C renal
NCI-H522 lung = test system: NCI-H522 lung
HOP-92 NSCLC = test system: HOP-92 NSCLC

`COC(=O)Nc1nc2cc3c(cc2s1)OCCO3` was tested, and the GI50 (SK-MEL-28 melanoma) was over 50 µM, the TGI (SK-MEL-28 melanoma) was over 50 µM and the GI50 (ACHN renal) was over 50 µM. The TGI (ACHN renal) was over 50 µM, the GI50 (DU-145 prostate) was over 50 µM and the TGI (DU-145 prostate) was over 50 µM. The GI50 (SF-268 CNS) was over 50 µM, the TGI (SF-268 CNS) was over 50 µM and the GI50 (T-47D breast) was over 50 µM. For the same compound, the TGI (T-47D breast) was over 50 µM, the GI50 (A498 renal) was over 50 µM and the TGI (A498 renal) was over 50 µM. For the same compound, the GI50 (SK-MEL-5 melanoma) was over 50 µM, the TGI (SK-MEL-5 melanoma) was over 50 µM and the GI50 (UACC-62 melanoma) was over 50 µM. It also gave a TGI (UACC-62 melanoma) of over 50 µM, a GI50 (BT-549 breast) of over 50 µM and a TGI (BT-549 breast) of over 50 µM. The GI50 (HS 578T breast) was over 50 µM, the TGI (HS 578T breast) was over 50 µM and the GI50 (CCRF-CEM leukemia) was over 50 µM. It also gave a TGI (CCRF-CEM leukemia) of over 50 µM, a GI50 (NCI/ADR-RES ovarian) of over 50 µM and a TGI (NCI/ADR-RES ovarian) of over 50 µM. For the same compound, the GI50 (OVCAR-8 ovarian) was over 50 µM, the TGI (OVCAR-8 ovarian) was over 50 µM and the GI50 (SF-295 CNS) was over 50 µM. It also gave a TGI (SF-295 CNS) of over 50 µM, a GI50 (SF-539 CNS) of over 50 µM and a TGI (SF-539 CNS) of over 50 µM. For the same compound, the GI50 (PC-3 prostate) was over 50 µM, the TGI (PC-3 prostate) was over 50 µM and the GI50 (HT29 colon) was over 50 µM. It also gave a TGI (HT29 colon) of over 50 µM, a GI50 (SW-620 colon) of over 50 µM and a TGI (SW-620 colon) of over 50 µM. The GI50 (K-562 leukemia) was over 50 µM, the TGI (K-562 leukemia) was over 50 µM and the GI50 (HL-60(TB) leukemia) was over 50 µM. For the same compound, the TGI (HL-60(TB) leukemia) was over 50 µM, the GI50 (MCF7 breast) was over 50 µM and the TGI (MCF7 breast) was over 50 µM. For the same compound, the GI50 (KM12 colon) was over 50 µM, the TGI (KM12 colon) was over 50 µM and the GI50 (M14 melanoma) was over 50 µM. For the same compound, the TGI (M14 melanoma) was over 50 µM, the GI50 (RPMI-8226 leukemia) was over 50 µM and the TGI (RPMI-8226 leukemia) was over 50 µM. The GI50 (NCI-H23 lung) was over 50 µM, the TGI (NCI-H23 lung) was over 50 µM and the GI50 (UO-31 renal) was over 50 µM. For the same compound, the TGI (UO-31 renal) was over 50 µM, the GI50 (SK-MEL-2 melanoma) was over 50 µM and the TGI (SK-MEL-2 melanoma) was over 50 µM. It also gave a GI50 (SK-OV-3 ovarian) of over 50 µM, a TGI (SK-OV-3 ovarian) of over 50 µM and a GI50 (RXF 393 renal) of over 50 µM. It also gave a TGI (RXF 393 renal) of over 50 µM, a GI50 (A549 NSCLC) of over 50 µM and a TGI (A549 NSCLC) of over 50 µM. It also gave a GI50 (IGROV1 ovarian) of over 50 µM, a TGI (IGROV1 ovarian) of over 50 µM and a GI50 (OVCAR-5 ovarian) of over 50 µM. The TGI (OVCAR-5 ovarian) was over 50 µM, the GI50 (U251 CNS) was over 50 µM and the TGI (U251 CNS) was over 50 µM. The GI50 (OVCAR-3 ovarian) was over 50 µM, the TGI (OVCAR-3 ovarian) was over 50 µM and the GI50 (MDA-MB-435) was over 50 µM. The TGI (MDA-MB-435) was over 50 µM, the GI50 (LOX IMVI melanoma) was over 50 µM and the TGI (LOX IMVI melanoma) was over 50 µM. The GI50 (SR leukemia) was over 50 µM, the TGI (SR leukemia) was over 50 µM and the GI50 (786-0 renal) was over 50 µM. The TGI (786-0 renal) was over 50 µM, the GI50 (TK-10 renal) was over 50 µM and the TGI (TK-10 renal) was over 50 µM. It also gave a GI50 (COLO 205 colon) of over 50 µM, a TGI (COLO 205 colon) of over 50 µM and a GI50 (HCT-15 colon) of over 50 µM. It also gave a TGI (HCT-15 colon) of over 50 µM, a GI50 (MDA-MB-231 breast) of over 50 µM and a TGI (MDA-MB-231 breast) of over 50 µM. It also gave a GI50 (HCT-116 colon) of over 50 µM, a TGI (HCT-116 colon) of over 50 µM and a GI50 (OVCAR-4 ovarian) of over 50 µM. For the same compound, the TGI (OVCAR-4 ovarian) was over 50 µM, the GI50 (HOP-62 NSCLC) was over 50 µM and the TGI (HOP-62 NSCLC) was over 50 µM. For the same compound, the GI50 (SNB-19 CNS) was over 50 µM, the TGI (SNB-19 CNS) was over 50 µM and the GI50 (UACC-257 melanoma) was over 50 µM. The TGI (UACC-257 melanoma) was over 50 µM, the GI50 (HCC-2998 colon) was over 50 µM and the TGI (HCC-2998 colon) was over 50 µM. For the same compound, the GI50 (MALME-3M melanoma) was over 50 µM, the TGI (MALME-3M melanoma) was over 50 µM and the GI50 (SNB-75 CNS) was over 50 µM. For the same compound, the TGI (SNB-75 CNS) was over 50 µM, the GI50 (MOLT-4 leukemia) was over 50 µM and the TGI (MOLT-4 leukemia) was over 50 µM. The GI50 (CAKI-1 renal) was over 50 µM, the TGI (CAKI-1 renal) was over 50 µM and the GI50 (NCI-H226 lung) was over 50 µM. The TGI (NCI-H226 lung) was over 50 µM, the GI50 (NCI-H460 lung) was over 50 µM and the TGI (NCI-H460 lung) was over 50 µM. For the same compound, the GI50 (SN12C renal) was over 50 µM, the TGI (SN12C renal) was over 50 µM and the GI50 (NCI-H522 lung) was over 50 µM. It also gave a TGI (NCI-H522 lung) of over 50 µM, a GI50 (HOP-92 NSCLC) of over 50 µM and a TGI (HOP-92 NSCLC) of over 50 µM.

Source: PubChem BioAssay (NCI)
